According to patent US20100144733A1, “Compounds, compositions and methods comprising heteroaromatic derivatives” (Institute for OneWorld Health, priority 2008, published 2010):
Where two headings read alike, the source gives them in different places.

Assays:
[1] = molecular target: T1, CHO-CFTR cell line (Homo sapiens, UniProt P13569); test: CHO-CFTR assay (FLIPR assay, same conditions as the T84 assay); assay type: cell-based; details: imidazole and triazole-containing compounds
T1 construct: expressed in transfected cells; host or cells: CHO (CHO-CFTR cell line)

[2] = molecular target: T2, CFTR (Homo sapiens, UniProt P13569); test: T84 assay (FLIPR membrane potential dye, forskolin/IBMX-stimulated CFTR channel activity); assay type: cell-based
T2 construct: endogenous in cells; host or cells: T84 human colonic cells (ECACC)
Outline: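 Fluorescence from a membrane potential dye in T84 monolayers (HBSS with 10 mM Hepes) is followed each second for 150 s. Cells are exposed to test compound during the 45 min dye loading, then challenged with forskolin (10 μM) and IBMX (100 μM) to open CFTR. Inhibitors suppress the depolarization-driven fluorescence increase.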

[3] = imidazole and triazole-containing compounds (Tables 13, 14, 14′), read-out: IC50 (μM) (T84 assay)
[4] = oxadiazole-containing compounds (a series), average of at least 2 runs unless annotated n = 1, read-out: IC50

T1 sequence (P13569 whole entry): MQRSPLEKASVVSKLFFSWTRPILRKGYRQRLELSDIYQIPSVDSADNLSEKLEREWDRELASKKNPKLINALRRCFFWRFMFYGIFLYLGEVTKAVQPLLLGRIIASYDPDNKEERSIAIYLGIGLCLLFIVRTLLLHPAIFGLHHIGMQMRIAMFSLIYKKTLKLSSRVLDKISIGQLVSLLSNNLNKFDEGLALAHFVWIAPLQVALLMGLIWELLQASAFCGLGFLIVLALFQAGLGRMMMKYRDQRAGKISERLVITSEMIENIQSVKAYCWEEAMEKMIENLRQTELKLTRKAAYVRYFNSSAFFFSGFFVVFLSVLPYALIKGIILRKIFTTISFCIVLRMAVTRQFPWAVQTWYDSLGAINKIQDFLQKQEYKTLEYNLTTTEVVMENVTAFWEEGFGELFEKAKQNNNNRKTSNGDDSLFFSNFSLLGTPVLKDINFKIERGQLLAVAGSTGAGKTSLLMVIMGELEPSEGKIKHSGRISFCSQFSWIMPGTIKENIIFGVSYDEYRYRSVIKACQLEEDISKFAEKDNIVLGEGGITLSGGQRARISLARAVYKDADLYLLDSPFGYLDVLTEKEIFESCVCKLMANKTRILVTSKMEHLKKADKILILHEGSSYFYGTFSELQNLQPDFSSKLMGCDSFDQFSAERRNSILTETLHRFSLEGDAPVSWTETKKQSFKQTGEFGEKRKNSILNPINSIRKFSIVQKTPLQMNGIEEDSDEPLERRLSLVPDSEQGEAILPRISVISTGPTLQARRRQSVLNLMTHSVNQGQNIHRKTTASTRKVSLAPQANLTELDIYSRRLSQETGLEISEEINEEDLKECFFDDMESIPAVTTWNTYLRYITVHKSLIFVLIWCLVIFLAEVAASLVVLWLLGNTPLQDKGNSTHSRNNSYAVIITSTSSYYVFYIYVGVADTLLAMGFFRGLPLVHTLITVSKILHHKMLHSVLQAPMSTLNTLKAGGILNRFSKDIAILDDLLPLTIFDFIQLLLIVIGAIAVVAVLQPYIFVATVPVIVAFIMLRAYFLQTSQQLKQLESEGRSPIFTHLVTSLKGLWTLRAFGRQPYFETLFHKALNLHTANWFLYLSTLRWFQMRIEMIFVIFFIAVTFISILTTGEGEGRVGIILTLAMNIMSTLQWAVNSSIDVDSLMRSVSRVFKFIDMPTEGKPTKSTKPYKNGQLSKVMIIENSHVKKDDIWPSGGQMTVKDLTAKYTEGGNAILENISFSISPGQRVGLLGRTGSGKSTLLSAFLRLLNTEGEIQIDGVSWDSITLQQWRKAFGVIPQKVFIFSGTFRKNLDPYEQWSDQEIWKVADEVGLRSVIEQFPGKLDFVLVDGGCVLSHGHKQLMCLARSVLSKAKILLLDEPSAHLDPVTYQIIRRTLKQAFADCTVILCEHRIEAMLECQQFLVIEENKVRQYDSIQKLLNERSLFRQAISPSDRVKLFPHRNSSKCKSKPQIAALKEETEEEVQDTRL
T2 sequence (P13569 whole entry): as above

Row | IC50 [1] | IC50 [2, 3] | IC50 [2, 4] | Structure (SMILES)
1 | 5.38 µM | 4.26 µM |  | CN(Cc1ccc(C(C)(C)C)cc1)C(=O)c1ncn(-c2cc(Cl)c(O)c(Cl)c2)n1 [1i, N-(4-tert-butylbenzyl)-1-(3,5-dichloro-4-hydroxyphenyl)-N-methyl-1H-1,2,4-triazole-3-carboxamide]
2 | 6.45 µM | 4.88 µM |  | O=C(NC(c1ccccc1)c1ccccc1)c1ncn(-c2cc(Cl)c(O)c(Cl)c2)n1 [2i, N-benzhydryl-1-(3,5-dichloro-4-hydroxyphenyl)-1H-1,2,4-triazole-3-carboxamide]
3 | 3.37 µM | 7.14 µM |  | O=C(NCc1cccc(OC(F)(F)F)c1)c1ncn(-c2cc(Cl)c(O)c(Cl)c2)n1 [3i, 1-(3,5-dichloro-4-hydroxyphenyl)-N-(3-(trifluoromethoxy)benzyl)-1H-1,2,4-triazole-3-carboxamide]
4 | 14.3 µM | 8.15 µM |  | O=C(c1ncn(-c2cc(Cl)c(O)c(Cl)c2)n1)N1CCN(c2cccc(C(F)(F)F)c2)CC1 [4i, (1-(3,5-dichloro-4-hydroxyphenyl)-1H-1,2,4-triazol-3-yl)(4(3-(trifluoromethyl)phenyl)piperazin-1-yl)methanone]
5 | 7.5 µM | 17.4 µM |  | O=C(c1cn(-c2cc(Br)c(O)c(Br)c2)cn1)N1CCC(Cc2ccccc2)CC1 [19i, (4-benzylpiperidin-1-yl)(1-(3,5-dibromo-4-hydroxyphenyl)-1H-imidazol-4-yl)methanone]
6 | 2.31 µM | 17.6 µM |  | O=C(NCc1cccc(OC(F)(F)F)c1)c1cn(-c2cc(Br)c(O)c(Br)c2)cn1 [20i, 1-(3,5-Dibromo-4-hydroxyphenyl)-N-(3-(trifluoromethoxy)benzyl)-1H-imidazole-4-carboxamide]
7 | 12.5 µM | 7.39 µM |  | O=C(NCc1ccc(F)c(Cl)c1)c1ncn(-c2cc(Cl)c(O)c(Cl)c2)n1 [23i, N-(3-chloro-4-fluorobenzyl)-1-(3,5-dichloro-4-hydroxyphenyl)-1H-1,2,4-triazole-3-carboxamide]
8 | 8.76 µM |  |  | O=C(NCc1ccc(Oc2cc(C(F)(F)F)cc(C(F)(F)F)c2)cc1)c1ncn(-c2cc(Cl)c(O)c(Cl)c2)n1 [62i, N-(4-(3,5-bis(trifluoromethyl)phenoxy)benzyl)-1-(3,5-dichloro-4-hydroxyphenyl)-1H-1,2,4-triazole-3-carboxamide]
9 | 4.81 µM |  |  | CN(C)c1cccc(Oc2ccc(CNC(=O)c3ncn(-c4cc(Cl)c(O)c(Cl)c4)n3)cc2)c1 [64i, 1-(3,5-dichloro-4-hydroxyphenyl)-N-(4-(3-(dimethylamino)phenoxy)benzyl)-1H-1,2,4-triazole-3-carboxamide]
10 |  |  | 18.7 µM | O=C(NCc1ccc(Oc2ccc(OC(F)(F)F)cc2)cc1)c1nc(-c2cc(Cl)c(O)c(Cl)c2)no1 [181a, 3-(3,5-dichloro-4-hydroxyphenyl)-N-(4-(4-(trifluoromethoxy)phenoxy)benzyl)-1,2,4-oxadiazole-5-carboxamide]
11 |  |  | 8.03 µM | O=C(NCc1ccc(Oc2ccc(Br)cc2)cc1)c1nc(-c2cc(Cl)c(O)c(Cl)c2)no1 [182a, N-(4-(4-bromophenoxy)benzyl)-3-(3,5-dichloro-4-hydroxyphenyl)-1,2,4-oxadiazole-5-carboxamide]
12 |  |  | 11.7 µM | COc1ccc(Oc2ccc(CNC(=O)c3nc(-c4cc(Cl)c(O)c(Cl)c4)no3)cc2)cc1F [183a, 3-(3,5-dichloro-4-hydroxyphenyl)-N-(4-(3-fluoro-4-methoxyphenoxy)benzyl)-1,2,4-oxadiazole-5-carboxamide]
13 |  |  | 13.6 µM | CCOc1ccc(Oc2ccc(CNC(=O)c3nc(-c4cc(Cl)c(O)c(Cl)c4)no3)cc2)cc1Cl [184a, N-(4-(3-chloro-4-ethoxyphenoxy)benzyl)-3-(3,5-dichloro-4-hydroxyphenyl)-1,2,4-oxadiazole-5-carboxamide]
14 |  |  | 5.11 µM | CN(Cc1cccc(-c2cccnc2)c1)C(=O)c1nc(-c2cc(Cl)c(O)c(Cl)c2)no1 [185a, 3-(3,5-dichloro-4-hydroxyphenyl)-N-methyl-N-(3-(pyridin-3-yl)benzyl)-1,2,4-oxadiazole-5-carboxamide]
15 |  |  | 5.66 µM | CN(Cc1ccc(-c2ccccn2)cc1)C(=O)c1nc(-c2cc(Cl)c(O)c(Cl)c2)no1 [186a, 3-(3,5-dichloro-4-hydroxyphenyl)-N-methyl-N-(4-(pyridin-2-yl)benzyl)-1,2,4-oxadiazole-5-carboxamide]
16 |  |  | 24.4 µM | CN(Cc1ccc(N2CCOCC2)cc1)C(=O)c1nc(-c2cc(Cl)c(O)c(Cl)c2)no1 [187a, 3-(3,5-dichloro-4-hydroxyphenyl)-N-methyl-N-(4-morpholinobenzyl)-1,2,4-oxadiazole-5-carboxamide]
17 |  |  | 5.81 µM | CN(Cc1ccc(-c2cncnc2)cc1)C(=O)c1nc(-c2cc(Cl)c(O)c(Cl)c2)no1 [188a, 3-(3,5-dichloro-4-hydroxyphenyl)-N-methyl-N-(4-(pyrimidin-5-yl)benzyl)-1,2,4-oxadiazole-5-carboxamide]

Row | IC50 [1] | IC50 [2, 3] | IC50 [2, 4] | Structure (SMILES)
18 |  |  | 16.9 µM | CN(Cc1ccc(-c2ncccn2)cc1)C(=O)c1nc(-c2cc(Cl)c(O)c(Cl)c2)no1 [189a, 3-(3,5-dichloro-4-hydroxyphenyl)-N-methyl-N-(4-(pyrimidin-2-yl)benzyl)-1,2,4-oxadiazole-5-carboxamide]
19 |  |  | 11 µM | O=C(NCc1ccc(Oc2cccc(OC(F)(F)F)c2)cc1)c1nc(-c2cc(Cl)c(O)c(Cl)c2)no1 [190a, 3-(3,5-dichloro-4-hydroxyphenyl)-N-(4-(3-(trifluoromethoxy)phenoxy)benzyl)-1,2,4-oxadiazole-5-carboxamide]
20 |  |  | 8.85 µM | COc1cc(Oc2ccc(CNC(=O)c3nc(-c4cc(Cl)c(O)c(Cl)c4)no3)cc2)ccc1F [191a, 3-(3,5-dichloro-4-hydroxyphenyl)-N-(4-(4-fluoro-3-methoxyphenoxy)benzyl)-1,2,4-oxadiazole-5-carboxamide]
21 |  |  | 17.6 µM | CC(C)(C)c1ccc(Oc2ccc(CNC(=O)c3nc(-c4cc(Cl)c(O)c(Cl)c4)no3)cc2)cc1 [192a, N-(4-(4-tert-butylphenoxy)benzyl)-3-(3,5-dichloro-4-hydroxyphenyl)-1,2,4-oxadiazole-5-carboxamide]
22 |  |  | 13.6 µM | Cc1ccc(Oc2ccc(CNC(=O)c3nc(-c4cc(Cl)c(O)c(Cl)c4)no3)cc2)cc1Cl [193a, N-(4-(3-chloro-4-methylphenoxy)benzyl)-3-(3,5-dichloro-4-hydroxyphenyl)-1,2,4-oxadiazole-5-carboxamide]
23 |  |  | 10 µM | O=C(NCc1ccc(Oc2cccc(F)c2)cc1)c1nc(-c2cc(Cl)c(O)c(Cl)c2)no1 [194a, 3-(3,5-dichloro-4-hydroxyphenyl)-N-(4-(3-fluorophenoxy)benzyl)-1,2,4-oxadiazole-5-carboxamide]
24 |  |  | 8.92 µM | COc1ccc(Oc2ccc(CNC(=O)c3nc(-c4cc(Cl)c(O)c(Cl)c4)no3)cc2)cc1Cl [195a, N-(4-(3-chloro-4-methoxyphenoxy)benzyl)-3-(3,5-dichloro-4-hydroxyphenyl)-1,2,4-oxadiazole-5-carboxamide]
25 |  |  | 16.2 µM | O=C(NCc1ccc(Oc2cc(Cl)cc(Cl)c2)cc1)c1nc(-c2cc(Cl)c(O)c(Cl)c2)no1 [196a, 3-(3,5-dichloro-4-hydroxyphenyl)-N-(4-(3,5-dichlorophenoxy)benzyl)-1,2,4-oxadiazole-5-carboxamide]
26 |  |  | 7.76 µM | CN(C)c1ccc(Oc2ccc(CNC(=O)c3nc(-c4cc(Cl)c(O)c(Cl)c4)no3)cc2)cc1 [197a, 3-(3,5-dichloro-4-hydroxyphenyl)-N-(4-(4-(dimethylamino)phenoxy)benzyl)-1,2,4-oxadiazole-5-carboxamide]
27 |  |  | 19.6 µM | O=C(NCc1ccc(Oc2ccc(C(F)(F)F)cc2)cc1)c1nc(-c2cc(Cl)c(O)c(Cl)c2)no1 [198a, 3-(3,5-dichloro-4-hydroxyphenyl)-N-(4-(4-(trifluoromethyl)phenoxy)benzyl)-1,2,4-oxadiazole-5-carboxamide]
28 |  |  | 12.2 µM | CN(C)c1cccc(Oc2ccc(CNC(=O)c3nc(-c4cc(Cl)c(O)c(Cl)c4)no3)cc2)c1 [199a, 3-(3,5-dichloro-4-hydroxyphenyl)-N-(4-(3-(dimethylamino)phenoxy)benzyl)-1,2,4-oxadiazole-5-carboxamide]
29 |  |  | 13.2 µM | O=C(NCc1ccc(Oc2ccc(F)c(C(F)(F)F)c2)cc1)c1nc(-c2cc(Cl)c(O)c(Cl)c2)no1 [200a, 3-(3,5-Dichloro-4-hydroxyphenyl)-N-(4-(4-fluoro-3-(trifluoromethyl)phenoxy)benzyl)-1,2,4-oxadiazole-5-carboxamide]
30 |  |  | 17.9 µM | O=C(NCc1ccc(Oc2cc(F)cc(Br)c2)cc1)c1nc(-c2cc(Cl)c(O)c(Cl)c2)no1 [201a, N-(4-(3-bromo-5-fluorophenoxy)benzyl)-3-(3,5-dichloro-4-hydroxyphenyl)-1,2,4-oxadiazole-5-carboxamide]
31 |  |  | 23.3 µM | O=C(NCc1ccc(Oc2ccc(Cl)c(C(F)(F)F)c2)cc1)c1nc(-c2cc(Cl)c(O)c(Cl)c2)no1 [202a, N-(4-(4-chloro-3-(trifluoromethyl)phenoxy)benzyl)-3-(3,5-dichloro-4-hydroxyphenyl)-1,2,4-oxadiazole-5-carboxamide]
32 |  |  | 25.9 µM | O=C(c1nc(-c2cc(Br)c(O)c(Br)c2)no1)N1CCC(C(O)(c2ccccc2)c2ccccc2)CC1 [203a, (3-(3,5-dibromo-4-hydroxyphenyl)-1,2,4-oxadiazol-5-yl)(4-(hydroxydiphenylmethyl)piperidin-1-yl)methanone]
33 |  |  | 8.99 µM | O=C(c1nc(-c2cc(Cl)c(O)c(Cl)c2)no1)N1CCC(Cc2ccccc2)CC1 [204a, (4-benzylpiperidin-1-yl)(3-(3,5-dichloro-4-hydroxyphenyl)-1,2,4-oxadiazol-5-yl)methanone]

Row | Structure (SMILES) | IC50 [1] | IC50 [2, 3] | IC50 [2, 4]
34 | CC(C)(C)ONC(=O)COc1c(Br)cc(-c2noc(C(=O)N3CCC(Cc4ccccc4)CC3)n2)cc1Br [205a, 2-(4-(5-(4-benzylpiperidine-1-carbonyl)-1,2,4-oxadiazol-3-yl)-2,6-dibromophenoxy)-N-tert-butoxyacetamide] |  |  | 23.1 µM
